The results in this text go back to paper PMC6164518 (Marine Drugs, 2018).

The IC50 is the concentration at which inhibition is half-maximal.

In data set [1] the target is T1, Electric eel AChE (Electrophorus electricus, UniProt O42275).
T1 construct: purchased Sigma-Aldrich (Steinheim, Germany)
In words: biochemical. Particulars: AChE from electric eel; mean ± SD from three separate experiments; read-out: IC50 EeAChE. On the procedure: (§1) The AChE and BChE inhibitory activities of compounds were determined by using a slightly modified Ellman’s method. Electric eel AChE, equine serum BChE, 5,5′-dithiobis(2-nitrobenzoic acid) (DTNB), phosphate buffer solution (PBS, pH 8.0), acetylthiocholine (ATC) iodide, and butyrylthiocholine (BUC) iodide were purchased from Sigma-Aldrich (Steinheim, Germany). […] Enzyme solutions were prepared at 2.0 U/mL in 2-mL aliquots. The assay medium consisted of 10 μL of enzyme, 40 μL of PBS, 20 μL of 0.01 M DTNB, and 10 μL of tested compound. Assayed solutions of tested compounds were pre-incubated with corresponding ChE for 5 min. The reaction was initiated by the addition of 20 μL of 0.01 M substrate (ATC or BUC). The activity was determined by measuring the increase in absorbance at 410 nm at 37 °C in 2-min intervals using Tecan Spark multimode microplate reader (Mannedorf, Switzerland). The percentage of inhibition (I) was calculated from the measured data as follows: I = (Ac − Ai)/Ac × 100%, where Ai and Ac represent the change in the absorbance in the presence of an inhibitor and without an inhibitor, respectively.

Data set [2] has as its target T2, equine serum BChE (Equus caballus, UniProt P81908).
T2 construct: purchased Sigma-Aldrich (Steinheim, Germany); host or cells: equine serum
In words: biochemical. The following applies: BChE from equine serum; mean ± SD from three separate experiments; read-out: IC50 eqBChE. On the procedure:
as §1

In data set [3] the target is T3, Aβ1–42 (Homo sapiens, UniProt P05067).
T3 construct: pre-treated Aβ1–42 (GL Biochem Ltd., Shanghai, China) was dissolved in DMSO; purchased GL Biochem Ltd., Shanghai, China
T3 sequence (P05067 672-713 limits assumed): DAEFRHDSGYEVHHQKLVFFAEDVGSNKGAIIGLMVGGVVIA
In words: Inhibition of self-induced Aβ1–42 aggregation (ThT fluorescence). The class given is biochemical. Particulars: Aβ1–42 2.5 µM, compound 10 µM, mean ± SD of three experiments. Here is the method: In order to investigate the inhibition of compounds on Aβ1–42 self-aggregation, a ThT-based fluorometric assay was performed. 1,1,1,3,3,3-hexafluoro-2-propanol (HFIP) pre-treated Aβ1–42 (GL Biochem Ltd., Shanghai, China) was dissolved in DMSO to make a 200 µM stock solution. The stock solution was centrifuged at the speed of 13,500 rpm for 10 min. The above supernatant was used for experiments. The tested compounds were dissolved in DMSO at concentrations of 0.8 mM. A screening assay for the tested compounds to inhibit A aggregation was performed by measuring ThT fluorescence emission. Compounds (2 µL) and 2 µL of 200 µM Aβ1–42 were added into 76 µL of phosphate-buffered saline (PBS at pH 7.4) in a 96-well plate. After incubation for 24 h at room temperature, 80 µL of 5 µM of ThT solution (in 50 mM of glycine-NaOH at pH 8.5) was added to the reaction solution. Fluorescence emission was measured at 490 nm with an excitation wavelength of 450 nm on a Tecan Spark multimode microplate reader. […] The fluorescence intensities were compared, and the % inhibition was calculated by the following equation: 100 − [(Fi − Fb)/(Fo − Fb) × 100], where Fi, Fo and Fb are the fluorescence intensities obtained for Aβ aggregation in the presence of inhibitors Aβ1–42 and ThT; in the presence of Aβ1–42 and THT but no inhibitors; and the blanks containing ThT only.

Data set [4] is described as follows: in vitro. Particulars: human. On the procedure:
Thus, to verify the hepatotoxicity of 1 and 12j, a 3-(4,5-dimethylthiazol-2-yl)-2,5-diphenyltetrazolium bromide (MTT) assay on the human hepatoma cell line (HepG2) was carried out.
The cytotoxicity of selected compounds was evaluated on HepG2 cells. Cells were inoculated into 96-well plates. After incubation for 24 h, the cells were treated with different concentrations of tested compounds for 24 h, and then were incubated with 10 μL of 3-(4,5-dimethylthiazol-2-yl)-2,5-diphenyltetrazolium bromide (MTT) at 37 °C for 2 h. The formazan dye product was measured by the absorbance at 490 nm on a Tecan Spark multimode microplate reader.

T1 sequence (O42275 24-633): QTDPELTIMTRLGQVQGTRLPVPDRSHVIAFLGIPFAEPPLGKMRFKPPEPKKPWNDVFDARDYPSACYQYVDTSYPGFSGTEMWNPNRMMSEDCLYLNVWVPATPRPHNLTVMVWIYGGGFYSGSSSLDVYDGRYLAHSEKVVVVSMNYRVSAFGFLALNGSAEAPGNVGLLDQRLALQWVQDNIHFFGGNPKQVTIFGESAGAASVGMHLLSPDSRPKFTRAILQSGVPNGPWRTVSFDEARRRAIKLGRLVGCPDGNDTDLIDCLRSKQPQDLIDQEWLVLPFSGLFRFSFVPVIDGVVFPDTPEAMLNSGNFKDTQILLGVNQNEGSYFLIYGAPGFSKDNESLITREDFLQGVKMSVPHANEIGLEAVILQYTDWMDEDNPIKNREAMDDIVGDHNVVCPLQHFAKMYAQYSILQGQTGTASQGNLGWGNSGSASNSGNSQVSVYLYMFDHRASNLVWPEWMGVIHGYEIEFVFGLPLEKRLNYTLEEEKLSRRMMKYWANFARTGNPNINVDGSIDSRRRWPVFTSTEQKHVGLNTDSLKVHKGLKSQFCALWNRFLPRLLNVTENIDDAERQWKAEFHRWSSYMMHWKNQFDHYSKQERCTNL
T2 sequence (P81908 whole entry): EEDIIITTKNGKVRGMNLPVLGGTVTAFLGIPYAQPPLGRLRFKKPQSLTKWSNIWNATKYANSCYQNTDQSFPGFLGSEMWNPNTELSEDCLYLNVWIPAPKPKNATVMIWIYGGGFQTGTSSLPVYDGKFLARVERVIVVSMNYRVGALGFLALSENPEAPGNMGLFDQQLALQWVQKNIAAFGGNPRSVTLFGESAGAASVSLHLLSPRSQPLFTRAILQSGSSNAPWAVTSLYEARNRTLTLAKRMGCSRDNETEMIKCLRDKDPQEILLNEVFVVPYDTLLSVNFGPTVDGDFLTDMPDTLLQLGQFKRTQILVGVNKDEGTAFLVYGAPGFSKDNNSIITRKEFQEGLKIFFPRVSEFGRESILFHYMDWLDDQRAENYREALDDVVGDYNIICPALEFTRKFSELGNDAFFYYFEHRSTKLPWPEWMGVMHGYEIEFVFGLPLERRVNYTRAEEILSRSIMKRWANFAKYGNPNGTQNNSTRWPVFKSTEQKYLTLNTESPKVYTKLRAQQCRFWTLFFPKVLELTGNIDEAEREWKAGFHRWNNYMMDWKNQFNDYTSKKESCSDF

With `COc1c(Br)cc(CC(=O)NCCNc2c3c(nc4ccccc24)CCCC3)cc1Br` [Compound 10a, 2-(3,5-Dibromo-4-methoxyphenyl)-N-(2-((1,2,3,4-tetrahydroacridin-9-yl)amino)ethyl)acetamide], the IC50 in data set [1] stood at 880 ± 74 nM; in data set [2], 230 ± 10 nM. The corresponding values for `COc1c(Br)cc(CC(=O)NCCCNc2c3c(nc4ccccc24)CCCC3)cc1Br` [Compound 10b, 2-(3,5-Dibromo-4-methoxyphenyl)-N-(3-((1,2,3,4-tetrahydroacridin-9-yl)amino)propyl)acetamide] are 771 ± 27 nM and 233 ± 13 nM.

With `COc1c(Br)cc(CC(=O)NCCCCNc2c3c(nc4ccccc24)CCCC3)cc1Br` [Compound 10c, 2-(3,5-Dibromo-4-methoxyphenyl)-N-(4-((1,2,3,4-tetrahydroacridin-9-yl)amino)butyl)acetamide], the IC50 in data set [1] came to 1050 ± 161 nM; in data set [2] it was 195 ± 11 nM. On to `COc1c(Br)cc(CC(=O)NCCCCCNc2c3c(nc4ccccc24)CCCC3)cc1Br` [Compound 10d, 2-(3,5-Dibromo-4-methoxyphenyl)-N-(5-((1,2,3,4-tetrahydroacridin-9-yl)amino)pentyl)acetamide], for which the IC50 in data set [1] turned out to be 764 ± 16 nM; in data set [2] it was 100 ± 14 nM. With `COc1c(Br)cc(CC(=O)NCCCCCCNc2c3c(nc4ccccc24)CCCC3)cc1Br` [Compound 10e, 2-(3,5-Dibromo-4-methoxyphenyl)-N-(6-((1,2,3,4-tetrahydroacridin-9-yl)amino)hexyl)acetamide], the IC50 in data set [1] came to 686 ± 45 nM; in data set [2], 54 ± 6 nM. With `COc1c(Br)cc(CC(=O)NCCCCCCCNc2c3c(nc4ccccc24)CCCC3)cc1Br` [Compound 10f, 2-(3,5-Dibromo-4-methoxyphenyl)-N-(7-((1,2,3,4-tetrahydroacridin-9-yl)amino)heptyl)acetamide], the IC50 was determined as 314 ± 10 nM in data set [1] and 53 ± 7 nM in data set [2].

Consider `COc1c(Br)cc(CC(=O)NCCCCCCCCNc2c3c(nc4ccccc24)CCCC3)cc1Br` [Compound 10g, 2-(3,5-Dibromo-4-methoxyphenyl)-N-(8-((1,2,3,4-tetrahydroacridin-9-yl)amino)octyl)acetamide], for which the IC50 in data set [1] was determined as 427 ± 16 nM; in data set [2], 325 ± 4 nM. For `COc1c(Br)cc(CC(=O)NCCCCCCCCCCNc2c3c(nc4ccccc24)CCCC3)cc1Br` [Compound 10h, 2-(3,5-Dibromo-4-methoxyphenyl)-N-(10-((1,2,3,4-tetrahydroacridin-9-yl)amino)decyl)acetamide], in that order: 638 ± 26 nM and 516 ± 37 nM. With `COc1ccc(CC(=O)NCCCCCCCNc2c3c(nc4ccccc24)CCCC3)c(Br)c1` [Compound 12a, 2-(2-Bromo-4-methoxyphenyl)-N-(7-((1,2,3,4-tetrahydroacridin-9-yl)amino)heptyl)acetamide], the IC50 in data set [1] came out at 324 ± 33 nM; in data set [2] it was 140 ± 4 nM. As for `COc1ccc(CC(=O)NCCCCCCCNc2c3c(nc4ccccc24)CCCC3)cc1` [Compound 12b, 2-(4-Methoxyphenyl)-N-(7-((1,2,3,4-tetrahydroacridin-9-yl)amino)heptyl)acetamide], the IC50 is 750 ± 54 nM in data set [1] and 694 ± 3 nM in data set [2]. On to `COc1ccc(CC(=O)NCCCCCCCNc2c3c(nc4ccccc24)CCCC3)cc1Br` [Compound 12c, 2-(3-Bromo-4-methoxyphenyl)-N-(7-((1,2,3,4-tetrahydroacridin-9-yl)amino)heptyl)acetamide], for which the results for the IC50 in data set [1] and in data set [2] were 607 ± 45 nM and 152 ± 6 nM, respectively. Regarding `O=C(Cc1ccccc1Br)NCCCCCCCNc1c2c(nc3ccccc13)CCCC2` [Compound 12d, 2-(2-Bromophenyl)-N-(7-((1,2,3,4-tetrahydroacridin-9-yl)amino)heptyl)acetamide], the IC50 in data set [1] amounted to 304 ± 4 nM; in data set [2] it was 91 ± 17 nM. With `O=C(Cc1cccc(Br)c1)NCCCCCCCNc1c2c(nc3ccccc13)CCCC2` [Compound 12e, 2-(3-Bromophenyl)-N-(7-((1,2,3,4-tetrahydroacridin-9-yl)amino)heptyl)acetamide], the IC50 in data set [1] was 724 ± 3 nM; in data set [2] it was 149 ± 21 nM. For the compound `O=C(Cc1ccc(Br)cc1)NCCCCCCCNc1c2c(nc3ccccc13)CCCC2` [Compound 12f, 2-(4-Bromophenyl)-N-(7-((1,2,3,4-tetrahydroacridin-9-yl)amino)heptyl)acetamide], the half-maximal inhibitory concentration (IC50) in data set [1] was 597 ± 28 nM; in data set [2], 214 ± 4 nM. Take `O=C(Cc1cc(Br)ccc1Br)NCCCCCCCNc1c2c(nc3ccccc13)CCCC2` [Compound 12g, 2-(2,5-Dibromophenyl)-N-(7-((1,2,3,4-tetrahydroacridin-9-yl)amino)heptyl)acetamide]: the IC50 in data set [1] is 696 ± 52 nM; in data set [2], 62 ± 6 nM. For the compound `O=C(Cc1cc(Br)cc(Br)c1)NCCCCCCCNc1c2c(nc3ccccc13)CCCC2` [Compound 12h, 2-(3,5-Dibromophenyl)-N-(7-((1,2,3,4-tetrahydroacridin-9-yl)amino)heptyl)acetamide], the IC50 in data set [1] amounted to 729 ± 21 nM; in data set [2], 204 ± 11 nM. On to `O=C(Cc1ccc(F)c(Br)c1)NCCCCCCCNc1c2c(nc3ccccc13)CCCC2` [Compound 12i, 2-(3-Bromo-4-fluorophenyl)-N-(7-((1,2,3,4-tetrahydroacridin-9-yl)amino)heptyl)acetamide], for which the IC50 stood at 748 ± 17 nM in data set [1] and 49 ± 4 nM in data set [2]. As to `O=C(Cc1cc(Cl)ccc1Br)NCCCCCCCNc1c2c(nc3ccccc13)CCCC2` [Compound 12k, 2-(2-Bromo-5-chlorophenyl)-N-(7-((1,2,3,4-tetrahydroacridin-9-yl)amino)heptyl)acetamide], the IC50 was determined as 383 ± 54 nM in data set [1] and 104 ± 1 nM in data set [2]. For the compound `O=C(Cc1ccccc1)NCCCCCCCNc1c2c(nc3ccccc13)CCCC2` [Compound 12l, 2-Phenyl-N-(7-((1,2,3,4-tetrahydroacridin-9-yl)amino)heptyl)acetamide], the IC50 in data set [1] amounted to 760 ± 92 nM; in data set [2], 680 ± 54 nM. For the compound `COc1ccc2c3c1O[C@H]1C[C@@H](O)C=C[C@@]31CCN(C)C2` [Galantamine, reference compound], the “Inhibition of Aβ Aggregation (%) Self-Induced” value is 1.25 ± 0.46% in data set [3] and “no significant inhibition” in data set [3] (listed as galantamine). `Nc1c2c(nc3ccccc13)CCCC2` [Tacrine, reference compound] had an IC50 at 24 h in data set [4] of 38.9 ± 0.53 µM.
